What all share (test): relative viability (nuclei count vs DMSO), 5 days (fraction); higher = more cells survive
Compound in the test “Ibrutinib + Foretinib”: C=CC(=O)N1CCC[C@@H](n2nc(-c3ccc(Oc4ccccc4)cc3)c3c(N)ncnc32)C1 [Ibrutinib] + COc1cc2c(Oc3ccc(NC(=O)C4(C(=O)Nc5ccc(F)cc5)CC4)cc3F)ccnc2cc1OCCCN1CCOCC1 [Foretinib] (partner 0.25 µM)
An outline of the steps:
(§1)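 Lung cancer cell lines, seeded in 1536-well plates, were treated the following day by pin tool with a single drug or with five library-drug doses (not always all listed) in √10 steps on top of a fixed anchor-drug dose. Cells were fixed and nuclei stained in one step after 5 days, and nuclei were counted. Relative viability is the nuclei count for treated wells divided by that for vehicle wells, reported as medians of duplicate plates.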

Compound in the test “BMX-IN-1 + Tozasertib”: C=CC(=O)Nc1cc(-n2c(=O)ccc3cnc4ccc(-c5ccc(NS(C)(=O)=O)cc5)cc4c32)ccc1C [BMX-IN-1] + Cc1cc(Nc2cc(N3CCN(C)CC3)nc(Sc3ccc(NC(=O)C4CC4)cc3)n2)n[nH]1 [Tozasertib] (partner 0.1 µM)
Put shortly:
as §1

Compound in the test “BMX-IN-1 + AZD7762”: C=CC(=O)Nc1cc(-n2c(=O)ccc3cnc4ccc(-c5ccc(NS(C)(=O)=O)cc5)cc4c32)ccc1C [BMX-IN-1] + NC(=O)Nc1cc(-c2cccc(F)c2)sc1C(=O)N[C@H]1CCCNC1 [AZD7762] (partner 0.2 µM)
An outline of the steps:
as §1

Compound in the test “PAC-1 + Vorinostat”: C=CCc1cccc(/C=N/NC(=O)CN2CCN(Cc3ccccc3)CC2)c1O [PAC-1] + O=C(CCCCCCC(=O)Nc1ccccc1)NO [Vorinostat] (partner 1 µM)
An outline of the steps:
as §1

Take NCI-H322M: the relative viability amounted to 0.872 with Ibrutinib + Foretinib (first compound 0.005 µM); 0.864 in the test with Ibrutinib + Foretinib (first compound 0.01581 µM); 0.899 with Ibrutinib + Foretinib (first compound 0.05 µM); 0.989 with Ibrutinib + Foretinib (first compound 0.1581 µM); 0.642 with Ibrutinib + Foretinib (first compound 0.5 µM); 0.514 with BMX-IN-1 + Tozasertib (first compound 0.02 µM). Besides, the relative viability worked out at 0.548 in the test with BMX-IN-1 + Tozasertib (first compound 0.2 µM); 0.475 with BMX-IN-1 + Tozasertib (first compound 0.6325 µM); 0.401 in the test with BMX-IN-1 + Tozasertib (first compound 2 µM); 0.532 with BMX-IN-1 + AZD7762 (first compound 0.02 µM); 0.559 in the test with BMX-IN-1 + AZD7762 (first compound 0.2 µM); 0.714 with BMX-IN-1 + AZD7762 (first compound 0.6325 µM). Moreover, the relative viability in the test with BMX-IN-1 + AZD7762 (first compound 2 µM) worked out at 0.485; with PAC-1 + Vorinostat (first compound 0.02 µM), 0.749; with PAC-1 + Vorinostat (first compound 0.06325 µM), 0.907; with PAC-1 + Vorinostat (first compound 0.2 µM), 1.04; in the test with PAC-1 + Vorinostat (first compound 2 µM), 0.828.

Turning to NCI-H358, the relative viability in the test with Ibrutinib + Foretinib (first compound 0.005 µM) amounted to 0.294; with Ibrutinib + Foretinib (first compound 0.05 µM), 0.35; with Ibrutinib + Foretinib (first compound 0.1581 µM) it was 0.551; with Ibrutinib + Foretinib (first compound 0.5 µM) it was 0.291; with BMX-IN-1 + Tozasertib (first compound 0.02 µM) it was 0.112; with BMX-IN-1 + Tozasertib (first compound 0.2 µM) it was 0.108. The relative viability with BMX-IN-1 + Tozasertib (first compound 0.6325 µM) came out at 0.104; with BMX-IN-1 + Tozasertib (first compound 2 µM), 0.11; in the test with BMX-IN-1 + AZD7762 (first compound 0.02 µM), 0.448; in the test with BMX-IN-1 + AZD7762 (first compound 0.2 µM), 0.504; in the test with BMX-IN-1 + AZD7762 (first compound 0.6325 µM), 0.491; with BMX-IN-1 + AZD7762 (first compound 2 µM), 0.486. The relative viability was 0.645 in the test with PAC-1 + Vorinostat (first compound 0.02 µM), 0.665 with PAC-1 + Vorinostat (first compound 0.06325 µM), 0.706 with PAC-1 + Vorinostat (first compound 0.2 µM) and 0.674 with PAC-1 + Vorinostat (first compound 2 µM).

In the case of NCI-H441, the relative viability was found to be 0.898 with Ibrutinib + Foretinib (first compound 0.005 µM); 1.11 in the test with Ibrutinib + Foretinib (first compound 0.01581 µM); 1.1 in the test with Ibrutinib + Foretinib (first compound 0.05 µM); 1.08 with Ibrutinib + Foretinib (first compound 0.1581 µM); 0.895 with Ibrutinib + Foretinib (first compound 0.5 µM); 0.58 with BMX-IN-1 + Tozasertib (first compound 0.02 µM). The relative viability is 0.873 with BMX-IN-1 + Tozasertib (first compound 0.2 µM); 0.761 in the test with BMX-IN-1 + Tozasertib (first compound 0.6325 µM); 0.846 with BMX-IN-1 + Tozasertib (first compound 2 µM); 1.12 in the test with BMX-IN-1 + AZD7762 (first compound 0.02 µM); 1.03 in the test with BMX-IN-1 + AZD7762 (first compound 0.2 µM); 0.997 in the test with BMX-IN-1 + AZD7762 (first compound 0.6325 µM). The relative viability stood at 1.39 with BMX-IN-1 + AZD7762 (first compound 2 µM); 0.87 in the test with PAC-1 + Vorinostat (first compound 0.02 µM); 1.05 with PAC-1 + Vorinostat (first compound 0.06325 µM); 0.82 in the test with PAC-1 + Vorinostat (first compound 0.2 µM); 0.761 with PAC-1 + Vorinostat (first compound 2 µM).

For NCI-H460, the relative viability was found to be 1.06 in the test with Ibrutinib + Foretinib (first compound 0.005 µM); 0.909 with Ibrutinib + Foretinib (first compound 0.01581 µM); 1.01 with Ibrutinib + Foretinib (first compound 0.1581 µM); 0.992 with Ibrutinib + Foretinib (first compound 0.5 µM); 0.525 with BMX-IN-1 + Tozasertib (first compound 0.02 µM); 0.796 with BMX-IN-1 + Tozasertib (first compound 0.2 µM). Further, the relative viability with BMX-IN-1 + Tozasertib (first compound 0.6325 µM) amounted to 0.531; with BMX-IN-1 + Tozasertib (first compound 2 µM), 0.569; with BMX-IN-1 + AZD7762 (first compound 0.02 µM), 0.725; with BMX-IN-1 + AZD7762 (first compound 0.2 µM), 0.566; with BMX-IN-1 + AZD7762 (first compound 0.6325 µM), 0.768; in the test with BMX-IN-1 + AZD7762 (first compound 2 µM) it was 0.735. Besides, the relative viability with PAC-1 + Vorinostat (first compound 0.02 µM) stood at 0.755; in the test with PAC-1 + Vorinostat (first compound 0.06325 µM), 0.75; with PAC-1 + Vorinostat (first compound 0.2 µM) it was 0.642; in the test with PAC-1 + Vorinostat (first compound 2 µM), 0.707.

On to NCI-H596, for which the relative viability turned out to be 0.808 with Ibrutinib + Foretinib (first compound 0.01581 µM); 0.803 with Ibrutinib + Foretinib (first compound 0.05 µM); 0.793 with Ibrutinib + Foretinib (first compound 0.1581 µM); 0.567 in the test with Ibrutinib + Foretinib (first compound 0.5 µM); 1.07 in the test with BMX-IN-1 + Tozasertib (first compound 0.02 µM); 0.932 with BMX-IN-1 + Tozasertib (first compound 0.2 µM). For the same cell line, the relative viability was determined as 0.819 with BMX-IN-1 + Tozasertib (first compound 0.6325 µM); 0.959 with BMX-IN-1 + Tozasertib (first compound 2 µM); 1.07 with BMX-IN-1 + AZD7762 (first compound 0.02 µM); 1.36 with BMX-IN-1 + AZD7762 (first compound 0.2 µM); 1.23 with BMX-IN-1 + AZD7762 (first compound 0.6325 µM); 1.04 in the test with BMX-IN-1 + AZD7762 (first compound 2 µM). The relative viability in the test with PAC-1 + Vorinostat (first compound 0.02 µM) came to 0.619; with PAC-1 + Vorinostat (first compound 0.06325 µM), 0.603; with PAC-1 + Vorinostat (first compound 0.2 µM) it was 0.643; with PAC-1 + Vorinostat (first compound 2 µM), 0.741.

On to NCI-H647, for which the relative viability turned out to be 1.13 with Ibrutinib + Foretinib (first compound 0.01581 µM); 1.23 with Ibrutinib + Foretinib (first compound 0.05 µM); 1.25 with Ibrutinib + Foretinib (first compound 0.1581 µM); 1.17 with Ibrutinib + Foretinib (first compound 0.5 µM); 0.283 in the test with BMX-IN-1 + Tozasertib (first compound 0.02 µM); 0.0553 in the test with BMX-IN-1 + Tozasertib (first compound 0.2 µM). Moreover, the relative viability with BMX-IN-1 + Tozasertib (first compound 0.6325 µM) came out at 0.394; with BMX-IN-1 + Tozasertib (first compound 2 µM), 0.232; in the test with BMX-IN-1 + AZD7762 (first compound 0.02 µM), 0.492; in the test with BMX-IN-1 + AZD7762 (first compound 0.2 µM), 0.583; with BMX-IN-1 + AZD7762 (first compound 0.6325 µM), 0.71; with BMX-IN-1 + AZD7762 (first compound 2 µM), 0.62. For the same cell line, the relative viability is 0.28 with PAC-1 + Vorinostat (first compound 0.02 µM), 0.67 with PAC-1 + Vorinostat (first compound 0.06325 µM), 0.706 with PAC-1 + Vorinostat (first compound 0.2 µM) and 0.514 with PAC-1 + Vorinostat (first compound 2 µM).

Regarding NCI-H650, the relative viability amounted to 1.07 with Ibrutinib + Foretinib (first compound 0.005 µM); 0.94 in the test with Ibrutinib + Foretinib (first compound 0.01581 µM); 1.09 in the test with Ibrutinib + Foretinib (first compound 0.05 µM); 1.25 with Ibrutinib + Foretinib (first compound 0.1581 µM); 1.17 with Ibrutinib + Foretinib (first compound 0.5 µM); 0.753 in the test with BMX-IN-1 + Tozasertib (first compound 0.02 µM). Moreover, the relative viability with BMX-IN-1 + Tozasertib (first compound 0.2 µM) was 0.838; with BMX-IN-1 + Tozasertib (first compound 0.6325 µM), 0.739; with BMX-IN-1 + Tozasertib (first compound 2 µM) it was 0.764; in the test with BMX-IN-1 + AZD7762 (first compound 0.02 µM) it was 0.978; with BMX-IN-1 + AZD7762 (first compound 0.2 µM), 1.29; in the test with BMX-IN-1 + AZD7762 (first compound 0.6325 µM), 0.921. Moreover, the relative viability with BMX-IN-1 + AZD7762 (first compound 2 µM) worked out at 0.904; with PAC-1 + Vorinostat (first compound 0.02 µM), 0.494; with PAC-1 + Vorinostat (first compound 0.06325 µM), 0.36; in the test with PAC-1 + Vorinostat (first compound 0.2 µM), 0.442; with PAC-1 + Vorinostat (first compound 2 µM), 0.395.

In the case of NCI-H727, the relative viability with Ibrutinib + Foretinib (first compound 0.005 µM) was determined as 0.911; in the test with Ibrutinib + Foretinib (first compound 0.01581 µM) it was 0.785; in the test with Ibrutinib + Foretinib (first compound 0.05 µM), 0.914; with Ibrutinib + Foretinib (first compound 0.5 µM) it was 0.695; with BMX-IN-1 + Tozasertib (first compound 0.02 µM), 0.691; in the test with BMX-IN-1 + Tozasertib (first compound 0.2 µM) it was 0.646. For the same cell line, the relative viability in the test with BMX-IN-1 + Tozasertib (first compound 0.6325 µM) was 0.572; in the test with BMX-IN-1 + Tozasertib (first compound 2 µM) it was 0.597; with BMX-IN-1 + AZD7762 (first compound 0.02 µM), 0.574; with BMX-IN-1 + AZD7762 (first compound 0.2 µM), 0.585; with BMX-IN-1 + AZD7762 (first compound 0.6325 µM) it was 0.635; with BMX-IN-1 + AZD7762 (first compound 2 µM), 0.541. Further, the relative viability with PAC-1 + Vorinostat (first compound 0.02 µM) amounted to 1.09; with PAC-1 + Vorinostat (first compound 0.06325 µM) it was 1.1; in the test with PAC-1 + Vorinostat (first compound 0.2 µM), 1.06; with PAC-1 + Vorinostat (first compound 2 µM), 1.13.

(Values after the supplement of paper PMC10307832.)
